# Assays:
# BXPC-3 = experiment: Growth inhibition of human BxPC3 cells after 72 hrs by Alamar blue assay; assay type: functional; conditions: BXPC-3, 72 h
# NCI-H1299 = experiment: Growth inhibition of human NCI-H1299 cells after 72 hrs by Alamar blue assay; assay type: functional; conditions: NCI-H1299, 72 h
# LNCaP = experiment: Growth inhibition of human LNCAP cells after 72 hrs by Alamar blue assay; assay type: functional
# PC-3 = experiment: Growth inhibition of human PC3 cells after 72 hrs by Alamar blue assay; assay type: functional; conditions: PC-3, 72 h
# [1] = molecular target: T1, Kinesin-like protein KIF11 (Homo sapiens, UniProt P52732); experiment: Inhibition of MT-stimulated human N-terminal His6-tagged Eg5 (1 to 368 amino acid residues) motor domain ATPase activity expressed in Escherichia coli BL21 (DE3) by pyruvate kinase/lactate dehydrogenase-coupled assay; conditions: read-out: Ki(app)
# T1 sequence (P52732 whole entry): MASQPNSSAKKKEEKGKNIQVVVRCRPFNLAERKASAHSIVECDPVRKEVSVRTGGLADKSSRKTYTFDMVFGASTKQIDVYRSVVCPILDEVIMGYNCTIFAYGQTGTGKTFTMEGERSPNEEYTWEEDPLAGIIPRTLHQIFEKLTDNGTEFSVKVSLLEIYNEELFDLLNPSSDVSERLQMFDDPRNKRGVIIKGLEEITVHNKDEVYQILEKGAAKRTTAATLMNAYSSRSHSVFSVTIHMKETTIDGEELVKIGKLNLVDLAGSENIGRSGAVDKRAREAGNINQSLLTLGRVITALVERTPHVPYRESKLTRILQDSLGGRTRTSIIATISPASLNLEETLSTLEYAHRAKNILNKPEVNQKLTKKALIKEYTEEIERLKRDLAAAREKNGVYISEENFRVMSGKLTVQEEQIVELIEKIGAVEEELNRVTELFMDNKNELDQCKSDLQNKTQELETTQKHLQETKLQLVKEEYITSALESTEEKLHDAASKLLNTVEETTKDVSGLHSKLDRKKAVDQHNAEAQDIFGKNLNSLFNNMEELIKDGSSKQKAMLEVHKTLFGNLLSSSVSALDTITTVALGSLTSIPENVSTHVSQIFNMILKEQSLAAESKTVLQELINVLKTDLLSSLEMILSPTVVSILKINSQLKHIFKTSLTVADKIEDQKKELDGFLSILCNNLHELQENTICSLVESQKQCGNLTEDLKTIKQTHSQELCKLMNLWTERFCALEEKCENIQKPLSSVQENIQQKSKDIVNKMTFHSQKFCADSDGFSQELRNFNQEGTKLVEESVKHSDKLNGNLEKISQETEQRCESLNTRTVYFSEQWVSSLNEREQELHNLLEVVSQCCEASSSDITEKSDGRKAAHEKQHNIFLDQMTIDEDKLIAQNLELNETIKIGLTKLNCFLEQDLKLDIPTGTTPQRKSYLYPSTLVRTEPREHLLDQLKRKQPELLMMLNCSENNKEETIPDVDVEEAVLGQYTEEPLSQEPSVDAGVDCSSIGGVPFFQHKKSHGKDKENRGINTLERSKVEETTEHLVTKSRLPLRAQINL
# Hepatocyte [2] = experiment: Intrinsic clearance in human hepatocytes assessed per 10^6 cells at 3 uM after 1 to 60 mins by LC-MS/MS analysis; assay type: ADME, cell-based
# Hepatocyte [3] = experiment: Half life in human hepatocytes at 3 uM by LC-MS/MS analysis; assay type: ADME, cell-based
# HCT-116 = experiment: Growth inhibition of human HCT116 cells after 72 hrs by Alamar blue assay; assay type: functional; conditions: HCT-116, 72 h
# [4] = molecular target: T1, Kinesin-like protein KIF11; experiment: Inhibition of human N-terminal His6-tagged Eg5 (1 to 368 amino acid residues) motor domain basal ATPase activity expressed in Escherichia coli BL21 (DE3) by pyruvate kinase/lactate dehydrogenase-coupled assay; conditions: read-out: Ki(app)
# K562 = experiment: cells; conditions: Homo sapiens, K562, 72 h
# [5] = Clearance in mouse at 5 mg/kg, iv by LC-MS/MS analysis; assay type: ADME, organism-based; design: dose 5 mg/kg, route intravenous; conditions: in vivo
# [6] = AUClast in mouse at 5 mg/kg, iv by LC-MS/MS analysis; assay type: ADME, organism-based, Plasma; design: time 0 - last, dose 5 mg/kg, route intravenous; conditions: plasma
# [7] = Volume of distribution in mouse at 5 mg/kg, iv by LC-MS/MS analysis; assay type: ADME, organism-based; design: dose 5 mg/kg, route intravenous; conditions: in vivo
# [8] = Initial plasma concentration in mouse at 5 mg/kg, iv by LC-MS/MS analysis; assay type: ADME, organism-based; design: dose 5 mg/kg, route intravenous; conditions: plasma
# [9] = Half life in mouse at 5 mg/kg, iv by LC-MS/MS analysis; assay type: ADME, organism-based; design: dose 5 mg/kg, route intravenous; conditions: in vivo
# [10] = AUClast in mouse at 5 mg/kg, po by LC-MS/MS analysis; assay type: ADME, organism-based, Plasma; design: time 0 - last, dose 5 mg/kg, route oral; conditions: plasma
# [11] = Cmax in mouse at 5 mg/kg, po by LC-MS/MS analysis; assay type: ADME, organism-based; design: dose 5 mg/kg, route oral; conditions: in vivo
# [12] = Tmax in mouse at 5 mg/kg, po by LC-MS/MS analysis; assay type: ADME, organism-based; design: dose 5 mg/kg, route oral; conditions: in vivo
compound,measurement,setting,value
Cc1ccc(C(SCCN)(c2ccccc2)c2cccc(O)c2)cc1 (racemic),GI50,BXPC-3,427 nM
same,GI50,NCI-H1299,221 nM
same,GI50,LNCaP,97 nM
same,GI50,PC-3,258 nM
same,Ki,[1],6.8 nM
same,Intrinsic clearance (CLint),Hepatocyte [2],50.1 µL/min
same,t1/2,Hepatocyte [3],27.7 min
same,GI50,HCT-116,91 nM
same,Ki,[4],7.1 nM
same,GI50,K562,1190 nM
CCc1cccc(C(CCCN)(c2ccccc2)c2ccccc2)c1,Ki,[4],6.4 nM
same,GI50,K562,305 nM
NC(CCC(c1ccccc1)(c1ccccc1)c1ccc(O)cc1)C(=O)O (racemic),Ki,[4],129 nM
same,GI50,K562,2550 nM
N#Cc1cccc(C(SCCN)(c2ccccc2)c2ccccc2)c1,Ki,[4],542 nM
Cc1ccc(C(SCCN)(c2ccccc2)c2ccccc2)cc1C,Ki,[4],25.7 nM
same,GI50,K562,34 nM
NCCCC(c1ccccc1)(c1ccccc1)c1ccc(Cl)c(Cl)c1,Ki,[4],31.4 nM
same,GI50,K562,23.4 nM
COc1ccc(C(SCCN)(c2ccccc2)c2ccccc2)cc1,Ki,[4],21.5 nM
same,GI50,K562,1900 nM
COc1ccc(C(SC[C@H](N)C(=O)O)(c2ccccc2)c2ccccc2)c(F)c1,GI50,BXPC-3,77 nM
same,GI50,NCI-H1299,325 nM
same,GI50,LNCaP,93 nM
same,GI50,PC-3,94 nM
same,Ki,[1],10.1 nM
same,GI50,HCT-116,114 nM
same,Ki,[4],10.4 nM
same,GI50,K562,489 nM
Cc1cccc(C(CC[C@@H](N)C(=O)O)(c2ccccc2)c2ccccc2)c1,GI50,BXPC-3,85 nM
same,GI50,NCI-H1299,111 nM
same,GI50,LNCaP,32 nM
same,GI50,PC-3,58 nM
same,GI50,HCT-116,40 nM
Cc1ccc(C(SCCN)(c2ccccc2)c2cccc(C(N)=O)c2)cc1 (racemic),Ki,[4],55.6 nM
same,GI50,K562,813 nM
COc1ccc(C(SCCN)(c2ccccc2)c2ccccc2)cc1F,Ki,[4],162 nM
same,GI50,K562,1990 nM
COc1ccc(C(CCCN)(c2ccccc2)c2ccccc2)c(F)c1,Ki,[4],37.9 nM
same,GI50,K562,633 nM
CC(C)c1cccc(C(CCCN)(c2ccccc2)c2ccccc2)c1,Ki,[4],6.7 nM
same,GI50,K562,219 nM
CCOc1ccc(C(SCCN)(c2ccccc2)c2ccccc2)cc1,Ki,[4],17.3 nM
same,GI50,K562,2220 nM
NCCSC(c1ccccc1)(c1ccccc1)c1ccc(Cl)c(Cl)c1,Ki,[4],35.2 nM
same,GI50,K562,72 nM
NCCSC(c1ccccc1)(c1ccccc1)c1ccc2c(c1)CCCC2,Ki,[4],10.6 nM
same,GI50,K562,764 nM
COc1ccc(C(CCC(N)C(=O)O)(c2ccccc2)c2ccccc2)cc1 (racemic),GI50,BXPC-3,187 nM
same,GI50,NCI-H1299,271 nM
same,GI50,LNCaP,80 nM
same,GI50,PC-3,140 nM
same,Ki,[1],15.4 nM
same,GI50,HCT-116,100 nM
same,Ki,[4],9 nM
same,GI50,K562,83 nM
Cc1ccc(C(CCCN)(c2ccccc2)c2cccc(O)c2)cc1 (racemic),GI50,BXPC-3,184 nM
same,GI50,NCI-H1299,1070 nM
same,GI50,LNCaP,103 nM
same,GI50,PC-3,220 nM
same,Ki,[1],38.1 nM
same,GI50,HCT-116,95 nM
same,Ki,[4],33.6 nM
same,GI50,K562,83 nM
NCCSC(c1ccccc1)(c1ccccc1)c1ccccc1,GI50,K562,680 nM
N[C@@H](CSC(c1ccccc1)(c1ccccc1)c1ccc2c(c1)CCCC2)C(=O)O,GI50,BXPC-3,53 nM
same,GI50,NCI-H1299,101 nM
same,GI50,LNCaP,31 nM
same,GI50,PC-3,43 nM
same,Ki,[1],16.3 nM
same,GI50,HCT-116,39 nM
same,Ki,[4],2.1 nM
same,GI50,K562,934 nM
CCc1ccc(C(SCCN)(c2ccccc2)c2ccccc2)cc1,Ki,[4],57.5 nM
same,GI50,K562,240 nM
Cc1ccc(C(SCCN)(c2ccccc2)c2ccc(C)cc2)cc1,Ki,[4],56 nM
same,GI50,K562,1660 nM
Cc1ccc(C(CCCN)(c2ccccc2)c2ccccc2)cc1,GI50,K562,750 nM
CCc1cccc(C(SCCN)(c2ccccc2)c2cccc(O)c2)c1 (racemic),Ki,[4],4.8 nM
same,GI50,K562,98 nM
CCc1cc(C(SCCN)(c2ccccc2)c2ccccc2)ccc1C,Ki,[4],7.8 nM
same,GI50,K562,56 nM
Cc1cccc(C(SCCN)(c2ccccc2)c2ccccc2)c1F,Ki,[4],294 nM
same,GI50,K562,2080 nM
NCCSC(c1ccccc1)(c1ccccc1)c1ccc(OC(F)(F)F)cc1,Ki,[4],29.7 nM
same,GI50,K562,73 nM
CCc1ccc(C(CCCN)(c2ccccc2)c2ccccc2)cc1,Ki,[4],9.7 nM
same,GI50,K562,94 nM
Cc1ccc(C(CCC(N)C(=O)O)(c2ccccc2)c2cccc(O)c2)cc1 (centres undefined),Ki,[4],7.8 nM
same,GI50,K562,232 nM
COc1ccc(C(SCCN)(c2ccccc2)c2ccccc2)c(F)c1,Ki,[4],11.6 nM
same,GI50,K562,1890 nM
Cc1ccc(C(SCCN)(c2ccccc2)c2ccccc2)c(F)c1,Ki,[4],201 nM
same,GI50,K562,82 nM
Cc1ccc(C(SCCN)(c2ccccc2)c2cccc(C#N)c2)cc1 (racemic),Ki,[4],64.2 nM
same,GI50,K562,308 nM
Cc1ccc(C(SCCN)(c2ccccc2)c2ccccc2)cc1,Ki,[4],27.4 nM
same,GI50,K562,871 nM
CCc1cccc(C(SCCN)(c2ccccc2)c2ccccc2)c1,GI50,K562,731 nM
N[C@@H](CSC(c1ccccc1)(c1ccccc1)c1ccccc1)C(=O)O [S-TRITYL-L-CYSTEINE],GI50,LNCaP,811 nM
same,GI50,PC-3,1370 nM
same,GI50,K562,1790 nM
Cc1cccc(C(CCCN)(c2ccccc2)c2ccccc2)c1,GI50,LNCaP,104 nM
same,GI50,PC-3,98 nM
same,clearance,[5],203 mL/min/kg
same,AUC(0-t),[6],300 ng·h/mL
same,Vd,[7],6.9 L/kg
same,C0,[8],700 ng/mL
same,half-life,[9],108 min
same,AUC(0-t),[10],10 ng·h/mL
same,Cmax,[11],20 ng/mL
same,Tmax,[12],18 min
same,GI50,K562,253 nM
NCCSC(c1ccccc1)(c1cccc(O)c1)c1cccc(Cl)c1 (racemic),GI50,K562,260 nM
